Measurements as given in patent US20210278408A1, “METHODS OF TREATMENT OF CANCER WITH SUBSTITUTED PYRROLE AND PYRAZOLE COMPOUNDS AND DIAGNOSIS OF CANCERS SUSCEPTIBLE TO TREATMENT WITH SUBSTITUTED PYRROLE AND PYRAZOLE COMPOUNDS” (Bantam Pharmaceutical, LLC, priority 2018, published 2021).
pIC50: −log10 of the molar value. Read-outs that look alike come from different tables or passages of the source.

Test system: 407 cancer cell lines
Experiment: Cell viability of cancer cell lines (IC50), CellTiter-Glo Viability Assay, 96 h
Type: cell-based
Conditions: Homo sapiens, read-out: Absolute IC50
Method: Viability was determined by using the 50% inhibitory concentration (IC50) as determined with the CellTiter-Glo® Viability Assay (Promega).
Experiments were initiated by first thawing and equilibrating the CellTiter-Glo® Buffer to room temperature. The lyophilized CellTiter-Glo® Substrate was also equilibrated to room temperature. The lyophilized substrate was reconstituted with the CellTiter-Glo® buffer to form the CellTiter-Glo® Reagent.
Cells were harvested during the logarithmic growth period, counted, and the cell concentration adjusted to 4.44×10^4 cells/mL using culture medium.
Cells were allowed to grow overnight and the following day, the TO reading was obtained by adding 10 μL culture medium to each well of Plate A. The plate was allowed to equilibrate at room temperature for thirty minutes, after which 50 μL CellTiter-Glo® reagent was added to each well. The contents were mixed for 5 min on an orbital shaker to induce cell lysis. Plates were incubated for 20 minutes to stabilize the luminescent signal and the TO luminescence recorded.
Test plate B was incubated for 96 h in the humidified incubator at 37° C. with 5% CO2.
Following the incubation, the plate was equilibrated at room temperature for thirty minutes. CellTiter-Glo® (50 μL) was added to each well of the plate and contents mixed for five minutes on an orbital shaker to induce cell lysis. The luminescent signal was allowed to stabilize at room temperature for 20 minutes and the luminescence recorded.
IC50 (EC50) was calculated using a dose-response curve, fitted using a nonlinear regression model with a sigmoidal dose response. Survival rate was calculated using the formula:
The Surviving rate (%)=(LumTest article−LumMedium control)/(LumNon-treated−LumMedium control)×100%.
Absolute IC50 (EC50) was calculated according to the dose-response curve generated by the statistical software (GraphPad Prism 5.0).

## Cc1nn(-c2nc(-c3ccc(C(F)(F)F)cc3)c(SC(C)C)s2)c(C(=O)O)c1-c1cccc(F)c1 [Compound A197, 4-(3-fluorophenyl)-1-(5-(isopropylthio)-4-(4-(trifluoromethyl)phenyl)thiazol-2-yl)-3-methyl-1H-pyrazole-5-carboxylic acid]
NCI-H292, 96 h, NCI-H292 cells, 96 h
  pIC50: < 4.52
NCI-H358, 96 h, NCI-H358 cells, 96 h
  pIC50: 6.42
NCI-H441, 96 h, NCI-H441 cells, 96 h
  pIC50: < 4.52
NCI-H446, 96 h, NCI-H446 cells, 96 h
  pIC50: < 4.52
NCI-H460, 96 h, NCI-H460 cells, 96 h
  pIC50: < 4.52
NCI-H508, 96 h, NCI-H508 cells, 96 h
  pIC50: 5.88
NCI-H520, 96 h, NCI-H520 cells, 96 h
  pIC50: 6.52
NCI-H522, 96 h, NCI-H522 cells, 96 h
  pIC50: < 4.52
NCI-H526, 96 h, NCI-H526 cells, 96 h
  pIC50: < 4.52
NCI-H596, NCI-H596
  pIC50: < 4.52
NCI-H661, 96 h, NCI-H661 cells, 96 h
  pIC50: < 4.52
NCI-H716, 96 h, NCI-H716 cells, 96 h
  pIC50: 5.80
NCI-H727, 96 h, NCI-H727 cells, 96 h
  pIC50: < 4.52
NCI-H747, 96 h, NCI-H747 cells, 96 h
  pIC50: < 4.52
NCI-H929, NCI-H929
  pIC50: 4.72
NCI-H1048, 96 h, NCI-H1048 cells, 96 h
  pIC50: < 4.52
NCI-H1155, 96 h, NCI-H1155 cells, 96 h
  pIC50: 6.34
NCI-H1299, 96 h, NCI-H1299 cells, 96 h
  pIC50: 6.11
NCI-H1373, NCI-H1373
  pIC50: 6.10
NCI-H1395, NCI-H1395
  pIC50: 6.43
NCI-H1437, 96 h, NCI-H1437 cells, 96 h
  pIC50: 6.51
NCI-H1563, NCI-H1563
  pIC50: < 4.52
NCI-H1573, 96 h, NCI-H1573 cells, 96 h
  pIC50: 6.34
NCI-H1581, 96 h, NCI-H1581 cells, 96 h
  pIC50: < 4.52
NCI-H1648, 96 h, NCI-H1648 cells, 96 h
  pIC50: < 4.52
NCI-H1650, NCI-H1650
  pIC50: < 4.52
NCI-H1651, 96 h, NCI-H1651 cells, 96 h
  pIC50: 6.07
NCI-H1666, 96 h, NCI-H1666 cells, 96 h
  pIC50: < 4.52
NCI-H1703, 96 h, NCI-H1703 cells, 96 h
  pIC50: 6.44
NCI-H1792, 96 h, NCI-H1792 cells, 96 h
  pIC50: 5.90
NCI-H1838, 96 h, NCI-H1838 cells, 96 h
  pIC50: < 4.52
NCI-H1975, 96 h, NCI-H1975 cells, 96 h
  pIC50: < 4.52
NCI-H1993, 96 h, NCI-H1993 cells, 96 h
  pIC50: 5.92
NCI-H2009, NCI-H2009
  pIC50: 5.32
NCI-H2052, NCI-H2052
  pIC50: < 4.52
NCI-H2087, 96 h, NCI-H2087 cells, 96 h
  pIC50: < 4.52
NCI-H2122, 96 h, NCI-H2122 cells, 96 h
  pIC50: 6.57
NCI-H2170, 96 h, NCI-H2170 cells, 96 h
  pIC50: 6.30
NCI-H2228, 96 h, NCI-H2228 cells, 96 h
  pIC50: 6.21
NCI-H2452, NCI-H2452
  pIC50: < 4.52
NCI-H3122, 96 h, NCI-H3122 cells, 96 h
  pIC50: 6.41
NCI-N87, 96 h
  pIC50: 5.83
NUGC-3, 96 h, NUGC-3 cells, 96 h
  pIC50: 4.64
NUGC-4, 96 h, NUGC-4 cells, 96 h
  pIC50: 5.82
OCI-AML-3, OCI-AML3
  pIC50: < 4.52
OCI-LY19, OCI-LY-19
  pIC50: 6.02
OCI-Ly7, 96 h, OCI-LY7 cells, 96 h
  pIC50: 6.17
OE19, 96 h
  pIC50: < 4.52
OPM-2, OPM2
  pIC50: 6.43
OS-RC-2, OS-RC-2
  pIC50: < 4.52
OVCAR-3, 96 h, OVCAR-3 cells, 96 h
  pIC50: < 4.52
OVCAR-8, 96 h, OVCAR-8 cells, 96 h
  pIC50: 5.99
PANC-1, PANC-1
  pIC50: 5.57
PC-3, PC-3
  pIC50: < 4.52
PC-9, 96 h, PC-9 cells, 96 h
  pIC50: 5.95
PLC-PRF-5, PLC/PRF/5
  pIC50: 5.91
Pfeiffer, 96 h, Pfeiffer cells, 96 h
  pIC50: 6.74
REH
  pIC50: 6.51
RKO
  pIC50: 4.63
RL95-2, 96 h, RL95-2 cells, 96 h
  pIC50: 6.38
RPMI-2650, 96 h, RPMI-2650 cells, 96 h
  pIC50: 6.09
RPMI-8226, 96 h, RPMI 8226 cells, 96 h
  pIC50: 6.12
RS4-11, RS4;11
  pIC50: 6.16
RT112/84, RT112/84
  pIC50: 4.90
RT-4, 96 h, RT4 cells, 96 h
  pIC50: 6.08
Raji, 96 h, Raji cells, 96 h
  pIC50: 6.35
Ramos, 96 h, Ramos cells, 96 h
  pIC50: 6.12
SAOS-2, Saos-2
  pIC50: 6.09
SCC-4, 96 h
  pIC50: < 4.52
SCC-9, 96 h, SCC-9 cells, 96 h
  pIC50: < 4.52
SCC-15, 96 h, SCC-15 cells, 96 h
  pIC50: < 4.52
SCC-25, 96 h, SCC-25 cells, 96 h
  pIC50: < 4.52
SF-126, 96 h, SF-126 cells, 96 h
  pIC50: < 4.52
SF-268, 96 h, SF268 cells, 96 h
  pIC50: < 4.52
SH-SY5Y
  pIC50: < 4.52
SJSA-1, SJSA-1
  pIC50: < 4.52
SK-BR-3, SK-BR-3
  pIC50: 4.53
SK-CO-1, 96 h, SK-CO-1 cells, 96 h
  pIC50: 5.95
SK-HEP1, 96 h, SK-HEP-1 cells, 96 h
  pIC50: < 4.52
SK-LU-1, 96 h, SK-LU-1 cells, 96 h
  pIC50: 5.98
SK-MEL-5, 96 h
  pIC50: < 4.52
SK-MEL-28, 96 h
  pIC50: < 4.52
SK-MES-1, SK-MES-1
  pIC50: 5.92
SK-N-FI, 96 h, SK-N-FI cells, 96 h
  pIC50: 5.92
SK-N-SH
  pIC50: < 4.52
SK-NEP-1, 96 h, SK-NEP-1 cells, 96 h
  pIC50: 5.97
SK-OV-3, 96 h, SK-OV-3 cells, 96 h
  pIC50: < 4.52
SK-UT-1, 96 h, SK-UT-1 cells, 96 h
  pIC50: < 4.52
SNU1, 96 h, SNU-1 cells, 96 h
  pIC50: 4.97
SNU-5, 96 h
  pIC50: 5.74
SNU-354, SNU-354
  pIC50: < 4.52
SNU-387, SNU-387
  pIC50: < 4.52
SNU-398, SNU-398
  pIC50: 6.66
SNU-423, 96 h, SNU-423 cells, 96 h
  pIC50: < 4.52
SNU-449, SNU-449
  pIC50: 4.62
SNU-475, 96 h, SNU-475 cells, 96 h
  pIC50: 5.60
SNU-638, 96 h, SNU-638 cells, 96 h
  pIC50: < 4.52
ST486, 96 h, ST486 cells, 96 h
  pIC50: 6.66
SU-DHL-1, SU-DHL-1
  pIC50: 6.48
SU-DHL-4, SU-DHL-4
  pIC50: 5.97
SU-DHL-5, 96 h, SU-DHL-5 cells, 96 h
  pIC50: 6.38
SU-DHL-6, 96 h, SU-DHL-6 cells, 96 h
  pIC50: 5.98
SU-DHL-8, SU-DHL-8
  pIC50: 6.12
SUM-159-PT, SUM159PT
  pIC50: 4.75
SUP-B15, SUP-B15
  pIC50: 5.91
SW13, SW-13
  pIC50: 6.46
SW48, 96 h, SW48 cells, 96 h
  pIC50: < 4.52
SW480, SW480
  pIC50: < 4.52
SW626, 96 h, SW626 cells, 96 h
  pIC50: < 4.52
SW684, 96 h, SW684 cells, 96 h
  pIC50: < 4.52
SW756, 96 h, SW756 cells, 96 h
  pIC50: 4.55
SW780, 96 h, SW780 cells, 96 h
  pIC50: 4.65
SW837, 96 h, SW837 cells, 96 h
  pIC50: < 4.52
SW948, 96 h, SW948 cells, 96 h
  pIC50: < 4.52
SW982, 96 h, SW982 cells, 96 h
  pIC50: < 4.52
SW 1116, 96 h, SW1116 cells, 96 h
  pIC50: < 4.52
SW1417, 96 h, SW1417 cells, 96 h
  pIC50: < 4.52
SW1990, SW1990
  pIC50: 4.74
SiHa, 96 h, SiHa cells, 96 h
  pIC50: < 4.52
T47D
  pIC50: < 4.52
T84, T84
  pIC50: < 4.52
T-24, 96 h, T24 cells, 96 h
  pIC50: < 4.52
TE-1, TE-1
  pIC50: 5.01
TF-1, TF-1
  pIC50: < 4.52
THP-1, 96 h, THP-1 cells, 96 h
  pIC50: 6.68
